# From publication PMC7044277 (Nature Communications, 2020)
# pEC50: −log10 of the molar value. Values joined by “and” are separate entries in the source; they are usually repeats but may differ in a detail not shown here. Equal entries are not always repeated.
# How the values were obtained:
# [1] = molecular target: T1, DRD2 S1945.43G (Homo sapiens, UniProt P14416, S194G); test: Gαi/o-mediated cAMP inhibition (GloSensor), mutant; assay type: cell-based; conditions: DRD2 Ser5.43Gly; G-protein assay
# T1 construct: expressed in transfected cells; host or cells: HEK293T (ATCC CRL-11268)
# T1 sequence (P14416 whole entry S194G): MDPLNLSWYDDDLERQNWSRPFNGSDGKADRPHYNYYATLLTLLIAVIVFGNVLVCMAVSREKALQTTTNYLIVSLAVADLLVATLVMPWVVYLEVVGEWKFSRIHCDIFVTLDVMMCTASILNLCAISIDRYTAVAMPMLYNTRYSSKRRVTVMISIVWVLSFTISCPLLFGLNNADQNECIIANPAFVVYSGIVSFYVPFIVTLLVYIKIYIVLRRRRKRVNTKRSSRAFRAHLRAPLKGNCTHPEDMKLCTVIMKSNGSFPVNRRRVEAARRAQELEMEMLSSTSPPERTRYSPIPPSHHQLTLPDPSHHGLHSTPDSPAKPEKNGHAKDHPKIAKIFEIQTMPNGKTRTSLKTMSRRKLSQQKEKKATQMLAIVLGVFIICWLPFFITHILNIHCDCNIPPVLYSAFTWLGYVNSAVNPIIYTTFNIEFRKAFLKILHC
# [2] = molecular target: DRD3 (Homo sapiens, UniProt P35462); test: β-arrestin2 recruitment (Tango); assay type: cell-based; conditions: for response, concentration-response data point (replicates): Fig_S10b, drug alone
# Sequence of DRD3 (P35462 whole entry): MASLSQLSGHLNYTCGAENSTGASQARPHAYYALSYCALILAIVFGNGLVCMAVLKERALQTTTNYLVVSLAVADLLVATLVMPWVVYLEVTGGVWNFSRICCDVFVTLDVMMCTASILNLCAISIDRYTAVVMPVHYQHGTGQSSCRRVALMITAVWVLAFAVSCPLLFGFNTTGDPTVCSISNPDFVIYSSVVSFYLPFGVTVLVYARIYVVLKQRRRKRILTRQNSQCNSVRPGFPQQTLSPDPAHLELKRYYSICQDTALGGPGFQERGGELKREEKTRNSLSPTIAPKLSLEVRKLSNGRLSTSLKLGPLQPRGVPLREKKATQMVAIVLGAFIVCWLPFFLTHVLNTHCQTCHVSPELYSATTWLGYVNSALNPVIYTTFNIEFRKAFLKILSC
# [3] = molecular target: DRD5 (Homo sapiens, UniProt P21918); test: β-arrestin2 recruitment (Tango); assay type: cell-based; conditions: Fig_S10e, single replicates
# Sequence of DRD5 (P21918 whole entry): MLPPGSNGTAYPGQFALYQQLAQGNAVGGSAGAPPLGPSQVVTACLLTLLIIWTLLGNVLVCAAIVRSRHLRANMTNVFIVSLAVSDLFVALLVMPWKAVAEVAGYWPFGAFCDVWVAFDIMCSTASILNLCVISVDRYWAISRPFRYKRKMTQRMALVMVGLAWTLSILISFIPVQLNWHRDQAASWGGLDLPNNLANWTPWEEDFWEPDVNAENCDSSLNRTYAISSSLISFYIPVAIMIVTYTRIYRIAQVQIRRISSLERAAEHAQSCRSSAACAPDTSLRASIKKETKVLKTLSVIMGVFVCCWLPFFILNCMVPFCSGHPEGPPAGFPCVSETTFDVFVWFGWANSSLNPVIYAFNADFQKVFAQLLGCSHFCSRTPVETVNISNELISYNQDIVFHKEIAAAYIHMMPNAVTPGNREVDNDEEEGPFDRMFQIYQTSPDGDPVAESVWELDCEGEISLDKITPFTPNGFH
# [4] = molecular target: T2, 5HT1A (Homo sapiens, UniProt P08908); test: β-arrestin2 recruitment (Tango); assay type: cell-based; conditions: Fig_S10f, single replicates
# T2 construct: expressed in transfected cells; host or cells: HTLA cells expressing TEV-fused β-arrestin2
# T2 sequence (P08908 1-422): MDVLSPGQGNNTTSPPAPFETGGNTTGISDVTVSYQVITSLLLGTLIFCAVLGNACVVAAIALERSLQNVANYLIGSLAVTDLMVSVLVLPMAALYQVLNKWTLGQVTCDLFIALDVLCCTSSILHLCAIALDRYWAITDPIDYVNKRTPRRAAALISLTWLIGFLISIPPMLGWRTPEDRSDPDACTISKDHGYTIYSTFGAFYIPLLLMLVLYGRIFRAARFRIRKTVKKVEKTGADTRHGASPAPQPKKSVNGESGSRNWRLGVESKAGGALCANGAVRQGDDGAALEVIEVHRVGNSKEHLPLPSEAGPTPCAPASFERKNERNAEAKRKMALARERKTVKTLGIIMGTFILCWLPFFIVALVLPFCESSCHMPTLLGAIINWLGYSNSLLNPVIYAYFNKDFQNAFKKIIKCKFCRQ
# [5] = molecular target: 5HT1D (Homo sapiens, UniProt P28221); test: β-arrestin2 recruitment (Tango); assay type: cell-based; conditions: agonist activity only at high concentrations
# Sequence of 5HT1D (P28221 whole entry): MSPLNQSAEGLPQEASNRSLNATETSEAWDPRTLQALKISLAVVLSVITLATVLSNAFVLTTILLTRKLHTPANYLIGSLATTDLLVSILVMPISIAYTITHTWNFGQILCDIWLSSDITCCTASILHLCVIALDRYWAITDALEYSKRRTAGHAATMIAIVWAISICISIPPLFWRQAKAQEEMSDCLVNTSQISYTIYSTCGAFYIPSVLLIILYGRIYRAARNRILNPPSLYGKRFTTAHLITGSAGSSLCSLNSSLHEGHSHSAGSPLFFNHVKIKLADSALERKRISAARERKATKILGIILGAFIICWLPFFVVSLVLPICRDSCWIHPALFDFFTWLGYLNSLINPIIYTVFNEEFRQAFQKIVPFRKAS
# [6] = tested on: serotonin receptor of Fig_S10g (subtype not named); test: β-arrestin2 recruitment (Tango), agonist activity, panel Fig_S10g (serotonin as reference; receptor not given); assay type: cell-based, human
# [7] = tested on: serotonin receptor (subtype not given; reference agonist serotonin); test: β-arrestin2 recruitment (Tango), agonist activity, source data Fig_S10m; assay type: cell-based, human; conditions: drug alone
compound,measurement,setting,value
CCOc1cccc2cc([C@H](C)NCC3(O)CCCCC3)oc12 [O4SE6],agonism after serine to glycine substitution,[1],impaired
same,β-arrestin2 recruitment agonist activity,"[2]; DRD3, Tango",no detectable agonist activity
same,pEC50,"[2]; DRD3, Tango, read-out: EC50 ± SEM",< 5.00
same,"response, concentration-response data point (replicates)",[2]; Log[Drug] -11,0.5878 and 2.511 and 1.194 and 2.15 and 1.1907 and 4.631 and -3.875 and 11.6724 and 8.605
same,"response, concentration-response data point (replicates)",[2]; Log[Drug] -11.52,-0.276 and 0.7993 and -0.05881 and 1.198 and 0.07895 and 5.103 and 9.785 and 5.488 and 1.269
same,"response, concentration-response data point (replicates)",[2]; Log[Drug] -12,1.3136 and 1.529 and -0.0652 and 0.03793 and 0.02727 and 3.808 and -3.9762 and 0.1686 and 1.294
same,"β-arrestin2 recruitment response at DRD3 (source data, replicate values)",[2]; Log[Drug] -6,12.3452
same,"β-arrestin2 recruitment response at DRD3 (source data, replicate values)",[2]; Log[Drug] -6.52,8.082 and 5.965 and 11.0149 and 19.9759 and 10.9551 and 9.221 and 9.014 and 7.197 and 16.9834
same,"β-arrestin2 recruitment response at DRD3 (source data, replicate values)",[2]; Log[Drug] -7,8.647 and 6.889 and 5.419 and 8.207 and 5.755 and 6.315 and 4.579 and 5.095 and 7.56
same,"β-arrestin2 recruitment response at DRD3 (source data, replicate values)",[2]; Log[Drug] -7.52,4.34 and 0.6022 and 1.762 and 2.508 and 1.167 and 1.071 and 1.816 and 2.855 and 3.052
same,"β-arrestin2 recruitment response at DRD3 (source data, replicate values)",[2]; Log[Drug] -8,0.7316 and 0.3304 and 1.058 and 0.6729 and 0.7789 and 1.51 and 1.953 and 1.946 and 0.2868
same,"β-arrestin2 recruitment response at DRD3 (source data, replicate values)",[2]; Log[Drug] -8.52,1.063 and 0.9542 and 0.434 and 0.6781 and 0.1637 and 0.2619 and 0.09244 and 0.8182 and 0.08985
same,"β-arrestin2 recruitment response at DRD3 (source data, replicate values)",[2]; Log[Drug] -9,-0.1872 and 1.166 and 0.6488 and 0.05773 and 0.4739 and 2.133 and -0.01123 and 0.2998 and -0.1097
same,"β-arrestin2 recruitment response at DRD3 (source data, replicate values)",[2]; Log[Drug] -9.52,0.6514 and 0.02761 and -0.07333 and 1.513 and -0.1516 and 0.7866 and 1.233 and 1.648 and 0.09503
same,"β-arrestin2 recruitment response at DRD3 (source data, replicate values)",[2]; Log[Drug] -10,1.257 and -0.3865 and -0.07075 and 0.2387 and 0.7918 and -0.1413 and 0.6108 and 0.3983 and -0.4207
same,"β-arrestin2 recruitment response at DRD3 (source data, replicate values)",[2]; Log[Drug] -10.52,3.755 and 0.333 and -0.07333 and 2.441 and 0.1379 and -0.03791 and 0.1961 and 1.7564 and 0.1754
same,"β-arrestin2 recruitment response at DRD3 (source data, replicate values)",[2]; Log[Drug] -11,0.522 and -0.07333 and -0.1743 and 0.2309 and 5.954 and 1.288 and -0.4182 and -0.01901 and 1.549
same,"β-arrestin2 recruitment response at DRD3 (source data, replicate values)",[2]; Log[Drug] -11.52,1.588 and -0.07592 and 0.1337 and 0.3757 and 0.0448 and -0.03791 and 0.4061 and 1.448 and -0.2186
same,"β-arrestin2 recruitment response, agonist mode (normalized)",[3]; Log[Drug] -6.52,-0.08982
same,"β-arrestin2 recruitment response, agonist mode (normalized)",[3]; Log[Drug] -7,-2.193 and 0.1162 and 2.002 and 1.631 and 1.978 and 0.5459 and 0.4001 and 1.786 and 0.382
same,"β-arrestin2 recruitment response, agonist mode (normalized)",[3]; Log[Drug] -7.52,-0.08982 and 3.931 and 2.6523 and 1.599 and 1.463 and 1.719 and -0.1199 and 3.905 and 0.3346
same,"β-arrestin2 recruitment response, agonist mode (normalized)",[3]; Log[Drug] -8,-0.07925 and -1.147 and -0.7291 and 1.435 and 1.941 and 1.528 and 1.952 and 2.3308 and 0.6078
same,"β-arrestin2 recruitment response, agonist mode (normalized)",[3]; Log[Drug] -8.52,-0.1004 (2×) and 1.601 and 1.441 and 1.882 and 1.748 and 1.175 and 1.334 and 1.6784
same,"β-arrestin2 recruitment response, agonist mode (normalized)",[3]; Log[Drug] -9,3.899 and 5.394 and 1.786 and 1.099 and 0.04193 and 2.45 and 0.1533 and 0.5646 and 0.6189
same,"β-arrestin2 recruitment response, agonist mode (normalized)",[3]; Log[Drug] -9.52,2.219 and 0.0951 and 1.997 and 0.5791 and 1.124 and 2.067 and 5.639 and 0.941 and -0.06273
same,"β-arrestin2 recruitment response, agonist mode (normalized)",[3]; Log[Drug] -10,-0.7133 and 0.5389 and 5.595 and 1.6 and 2.167 and 2.288 and 0.7068 and 0.5423 and 3.676
same,"β-arrestin2 recruitment response, agonist mode (normalized)",[3]; Log[Drug] -10.52,0.1321 and 0.1268 and 0.9299 and 1.442 and 0.235 and 1.403 and 0.9967 and 3.2411 and 1.093
same,"β-arrestin2 recruitment response, agonist mode (normalized)",[3]; Log[Drug] -11,0.1268 and 0.1004 and 7.307 and 0.5831 and 0.6598 and 1.285 and 1.949 and 0.03067 and 2.569
same,"β-arrestin2 recruitment response, agonist mode (normalized)",[3]; Log[Drug] -11.52,3.508 and 1.358 and 1.781 and 0.8196 and 0.1076 and 1.003 and 0.8127 and 3.51 and 1.499
same,"β-arrestin2 recruitment response, agonist mode (normalized)",[3]; Log[Drug] -12,-0.3064 and 5.8435 and 1.717 and 0.4312 and 3.455 and 0.3038 and 0.3541 and 3.032 and 0.3527
same,"β-arrestin2 recruitment response, agonist mode (normalized)",[4]; Log[Drug] -9.52,-0.8354 and -0.6725 and 0.6683 and 0.2383 and 1.852 and 0.7592 and 0.2273 and 0.7234 and 0.9859
same,"β-arrestin2 recruitment response, agonist mode (normalized)",[4]; Log[Drug] -10,0.6642 and 0.6683 and -0.5096 and -0.1895 and -0.3206 and 1.295 and 0.9379 and 4.834 and 0.8483
same,"β-arrestin2 recruitment response, agonist mode (normalized)",[4]; Log[Drug] -10.52,0.8312 and -0.848 and -0.5013 and 0.469 and 0.1267 and -0.3585 and 11.6165 and 0.685 and 0.3585
same,"β-arrestin2 recruitment response, agonist mode (normalized)",[4]; Log[Drug] -11,-0.188 and 0.8354 and -0.1713 and -0.4961 and -0.2339 and 0.4322 and 2.113 and 0.3457 and 0.4834
same,"β-arrestin2 recruitment response, agonist mode (normalized)",[4]; Log[Drug] -11.52,1.3325 and -0.1754 and -0.6683 and -0.2719 and 3.032 and -0.4646 and -0.4129 and 1.767 and 1.504
same,"β-arrestin2 recruitment response, agonist mode (normalized)",[4]; Log[Drug] -12,0.1671 and -0.9983 and -0.6683 and -0.2567 and -0.0639 and 2.424 and -0.7778 and 0.7554 and 0.3457
same,concentration at which the receptor is activated,[5],over 1 μM
same,"response, single replicate of concentration-response curve","[6]; Log[Drug] -6.52, drug alone",-6.59
same,"response, single replicate of concentration-response curve","[6]; Log[Drug] -7, drug alone",-3.19 and -7.082 and 4.545 and 9.195 and -2.738 and -3.211 and 7.129 and -1.468 and 1.444
same,"response, single replicate of concentration-response curve","[6]; Log[Drug] -7.52, drug alone",-9.03 and -3.911 and 11.866 and -9.097 and -3.819 and 15.0981 and -7.146 and 2.056 and -13.2444
same,"response, single replicate of concentration-response curve","[6]; Log[Drug] -8, drug alone",-6.944 and -3.717 and -3.146 and 13.9874 and -6.035 and -6.807 and 15.6877 and -18.2271 and -10.0032
same,"response, single replicate of concentration-response curve","[6]; Log[Drug] -8.52, drug alone",-4.818 and -1.578 and 1.598 and 2.984 and 0.747 and -7.738 and -15.1053 and -13.4017 and -9.68
same,"response, single replicate of concentration-response curve","[6]; Log[Drug] -9, drug alone",-4.766 and 4.75 and -7.577 and 4.415 and 0.09191 and 14.1047 and 1.581 and -6.014 and 1.453
same,"response, single replicate of concentration-response curve","[6]; Log[Drug] -9.52, drug alone",-5.307 and -4.4569 and -8.217 and -4.562 and -1.4705 and 8.897 and -2.656 and -20.9208 and -10.1255
same,"response, single replicate of concentration-response curve","[6]; Log[Drug] -10, drug alone",-5.416 and -3.999 and 8.581 and -6.089 and 12.3409 and -9.7675 and -12.7406 and -13.5007 and -15.0762
same,"response, single replicate of concentration-response curve","[6]; Log[Drug] -10.52, drug alone",-6.121 and -0.8987 and -0.5671 and -2.839 and 2.161 and 0.6785 and -9.456 and -4.939 and -9.345
same,"response, single replicate of concentration-response curve","[6]; Log[Drug] -11, drug alone",-4.41 and -4.674 and 2.4299 and -4.435 and -1.821 and -1.439 and -6.281 and -6.238 and -10.7545
same,"response, single replicate of concentration-response curve","[6]; Log[Drug] -11.52, drug alone",-9.9476 and -4.984 and -8.874 and -7.243 and 10.0217 and 14.7168 and -21.4945 and -11.4709 and -8.23
same,"response, single replicate of concentration-response curve","[6]; Log[Drug] -12, drug alone",2.568 and -7.302 and 4.735 and 18.6257 and 12.38 and 36.6159 and 18.9202 and -0.5417 and 1.31
same,"response, Fig_S10m, replicate values",[7]; Log[Drug] -10,-3 and -0.8547 and -1.711 and 1.274 and 0.6519 and 0.6372 and 3.446 and 2.684 and 1.5611
same,"response, Fig_S10m, replicate values",[7]; Log[Drug] -10.52,-1.057 and 0.5825 and 1.112 and 0.2883 and -0.05325 and 2.637 and -1.4637 and 2.006 and 9.099
same,"response, Fig_S10m, replicate values",[7]; Log[Drug] -11,-3.4971 and -1.766 and 0.3518 and 1.196 and 0.9733 and 1.78 and -2.611 and -3.973 and 1.645
same,"response, Fig_S10m, replicate values",[7]; Log[Drug] -11.52,-2.165 and -1.698 and -2.094 and 0.786 and 2.079 and 0.9742 and -3.099 and -0.8266 and -0.3396
same,"response, Fig_S10m, replicate values",[7]; Log[Drug] -12,0.1375 and -0.9459 and 1.244 and -0.4049 and 1.325 and 0.3957 and -1.831 and -2.73 and 1.919
